“And” between values parts separate entries of the source, which are not always exact repeats. Equal values may be shown once. “Also recorded” adds a separate entry of the source.

Details of data set [1]: method as in PMID 35959805. The following applies: UP0030 study participants, 2 h post dose; cited from earlier work.
The conditions of data set [2]: background statement, no reference given; cited from earlier work.
The nature of data set [3]: PET-CT imaging of the mouse brain (time-activity curve, SUV). Type of data set: in vivo, male C57 black 6 mice. The conditions noted are these: at 60 min. The method, then:
Preclinical experiments were conducted on male C57 black 6 mice (N = 10). In vivo experiments were performed on 3 mice and included a PET scan of the brain; ex vivo experiments were performed on all 10 mice and included samples of brain homogenate. […]
(§1) column (5 micron, 250 x 9.4 mm; Method 2); 30 sample fractions (Method 1) and 36 sample fractions (Method 2) were collected over either a 10- or 12-min run.
A radio-chromatogram was reconstructed from the HPLC fractions collected and the percent of unchanged [11C]UCB2713 was calculated:
[11C]UCB2713 parent fraction = i=n i
Where “cCPM fi” is the radioactivity measured for the HPLC fraction, corrected for the background radioactivity. “n” is first and “m” the last HPLC fraction containing the parent compound (1 ≤ n, m ≤ 30 or 36 [where 30 or 36 are the total number of fractions collected]).
PET-Computed Tomography (CT) Scanning and Image Reconstruction
Three mice were euthanized at the 90 min time point following radioligand injection. Prior to euthanization, these mice were scanned by PET-CT. A dynamic PET scan (Siemens Inveon DPET with docked multi-modality CT scanner) was acquired for each anesthetized mouse following IV administration of [11C]UCB2713. PET images were acquired in list mode and reconstructed with increasing time frames over the duration of the scan to characterize radiotracer kinetics. […]

Data set [4] can be described thus: Radio-HPLC metabolite analysis of mouse brain homogenate and plasma after IV radiotracer. Type of data set: in vivo, male C57 black 6 mice. The following applies: for % Parent Plasma / % Parent Brain: individual mice; for % Parent Brain: brain homogenate; for share of total brain activity corresponding to the parent / share of total plasma activity corresponding to the parent: approximate. Here is the method:
In this preclinical study, two radiolabeling positions were investigated, [^11C-N-CH3]UCB2713 and [^11C]carbonyl UCB2713 ([^11C-CO]UCB2713). The radiolabeling of [^11C-N-CH3]UCB2713 was performed by N-methylation of the corresponding desmethyl precursor with [^11C]methyl iodide and radiolabeling of [^11C-CO]UCB2713 was performed by [^11C]aminocarbonylation of the iodo precursor and the amino precursor with [^11C]carbon monoxide in the presence of Pd(π-cinnamyl) chloride dimer and Xantphos (4,5-bis(diphenylphosphino)-9,9-dimethylxanthene) (Fig. 1b). For additional information on the precursor molecules and radiolabeling methods, see the electronic supplement. A high-performance liquid chromatography (HPLC) metabolite analysis method was developed to quantify the ratio of [^11C-N-CH3]UCB2713 and other unidentified metabolites in plasma and brain homogenate samples. Relative quantification was used to provide the ratio of parent to metabolite in these samples.
Preclinical experiments were conducted on male C57 black 6 mice (N = 10). In vivo experiments were performed on 3 mice and included a PET scan of the brain; ex vivo experiments were performed on all 10 mice and included samples of brain homogenate.
[11C]UCB2713 in vivo/ex vivo Evaluation
Administration of Radioligand and Collecting Samples
Each mouse received an intravenous (IV) bolus injection of [11C]UCB2713 via the jugular vein. The mean (standard deviation [SD]) mass of each radiotracer dose was 1.54 (± 1.03) µg; with a radioactive dose of 17.26 (± 10.88) MBq. At pre-defined time points (40, 60, and 90 min) post-administration of [11C]UCB2713, each mouse was euthanized by exsanguination, followed by cervical dislocation, with blood samples collected in heparin tubes and the brain dissected.
Brain Sample Processing and Preparation of Sample for Analysis
A sample of brain homogenate (1:1, brain:water) was assessed for radioactivity using a γ-counter. Brain homogenate was extracted with a ratio of 1:2 (homogenate:acetonitrile); a ratio of 1:1 was used for the first two animals. The mixture was vortexed for 3 min followed by centrifugation (12000 x g) for 5 min at room temperature. The extraction efficiency was […]
Brain extraction efficiency = counts per minute (CPM) in supernatant (brain extract)/CPM in brain homogenate extracted
To identify the parent-retention time based on the ultraviolet (UV) chromatogram, 20 µL of a solution containing UCB2713 was added to the supernatant (350 µL), followed by 350 µL of 50 mM ammonium formate (adjusted to pH 8), then 0.5 mL of the resulting solution was injected onto the high-performance liquid chromatography (HPLC) column.
Two aliquots of this solution were counted to determine the HPLC recovery as follows:
Recovery efficiency % = = i=1 ∙100 […]
Where “CPM(aliq.)” is the radioactivity measured for the HPLC brain homogenate samples aliquot, “Valiq.” Is the volume of each aliquot , “CPM fi” is the count per minute for fraction “i” and ∑ 30 is the sum of 30 fractions.
Mouse blood samples were centrifuged at 7500 x g for 3 min at 4 °C and plasma was extracted with a ratio of 1:1 (plasma:acetonitrile). The plasma extraction efficiency was […]
Plasma extraction efficiency = CPM in supernatant (plasma extract)/CPM in plasma […]
Samples were prepared as described above for the brain, and two aliquots of solution were counted to determine the HPLC column recovery.
HPLC Procedure and Data Analysis
The HPLC system used a pump, degasser, UV-Vis/Diode Array Detector, and fraction collector. HPLC conditions used were 55% acetonitrile and 45% 100 mM ammonium formate (Method 1), or 48% acetonitrile and 52% 100 mM ammonium formate (adjusted to pH 8; Method 2) as the mobile phase at 5 mL/min and an Agilent XDB-C18 semi-preparative […]
as §1
A radio-chromatogram was reconstructed from the HPLC fractions collected and the […]

Data set [5] deals with Caco-2 cell system. Further details: method as in PMID 35959805. The conditions noted are these: Caco-2, in vitro; cited from earlier work.
Details of data set [6]: method as in PMID 35959805. The conditions noted are these: cited from earlier work.
The nature of data set [7]: Plasma free fraction. It is filed as in vitro ADME. The following applies: human plasma.
Data set [8] deals with ASYN pathology. The conditions noted are these: mouse model of PD, once-daily over 3 months; cited from earlier work.
The nature of data set [9]: Plasma pharmacokinetics after single oral dose in TM0017. It is filed as in vivo. The conditions noted are these: male, human, TM0017, single oral 360 mg.
Data set [10] is described as follows: Phase 1 PET-CT brain biodistribution study TM0017 (VT, K1, k2). Type of data set: in vivo, human. Here is the method:
A sample size of 2–10 participants was considered sufficient to meet the objectives, whilst limiting radiation exposure.
The preparation of radiopharmaceuticals and execution of PET-CT scans was performed by radiochemists, physicians, and technologists of Invicro (London, UK). Following local anesthesia, a catheter was inserted into the radial artery by an experienced physician; two venous catheters were also inserted. […] Upon administration, dynamic scanning started immediately and continued for 90 min.
Arterial input function data were acquired and processed for all PET scans.
Anatomical regions of interest (ROI) were defined via nonlinear deformation of a template MR image and associated neuroanatomical atlas, to match individual participants’ MR images. These ROI included, but were not limited to: parietal lobe, occipital lobe, frontal lobe, temporal lobe, striatum, cerebellum, thalamus, and the brain stem. Participants’ PET images were registered to their MR images, enabling the individualized ROI to be applied to the dynamic emission data to generate regional time activity curves (TACs). For additional information on the generation of regional TACs, see the electronic supplement.
Phase 1 PET Study in Healthy Male Participants (TM0017)
The TAC and total plasma data were fitted to a single compartment model to determine the influx and efflux constants K1 and k2. Because the plasma free fraction estimate is imprecise, we elected to fit the model using the total (free and bound) arterial concentration input function. The parameters of this model are related to the analogous parameters which would be estimated using an accurate estimate of the free arterial concentration using the equations below. We were able therefore to determine and present the K1 and estimated whole brain total distribution volume (VT), with relatively good repeatability between patients, and the equations below could also be used to relate the overall mean estimates back to the ideal total brain to free plasma minzasolmin (V’T) and unidirectional extraction Eu which can be calculated using the free fraction. The blood volume in the model was fixed at 5%. In this model, radiotracer which is free in tissue, non-specifically bound and specifically bound (i.e. to a target of interest) are lumped together in a single compartment, and so interchange between those states is assumed to be rapid.
The arterial input function used represents the total concentration of parent radiotracer in plasma, with no correction for plasma protein binding and the fitted and observed K1 from this model is lower than the rate of uptake from the free plasma concentration (K’1):
To calculate the Eu from the observed K1 from the model we then need to combine […]
The partition coefficient between total brain and total plasma concentration was determined from the fitted K1 and k2 parameters: […]
and the ratio of total concentration in brain to free concentration in plasma ( V’T) could be […]
Supplemental Fig. 1. Example of HPLC chromatograms (radioactive trace, top; UV trace, bottom) obtained during HPLC analysis of [11C-N-CH3]UCB2713 dose. The time delay

Data set [11] in a line: Safety and tolerability in TM0017 (TEAEs, ECG, vital signs).
Method: Other safety variables recorded include changes in 12-lead electrocardiogram (ECG) assessment and changes in vital signs (heart rate, systolic blood pressure, diastolic blood pressure, respiratory rate, and body temperature). Vital signs were measured in supine position following 5 min of rest and clinically significant abnormalities (according to the investigator) were recorded as an AE. All ECG recordings were performed following 5 min of rest in the supine position, in triplicate, with ≥ 1 min between each recording. If any clinically significant abnormalities occurred, an ECG data specialist was to review the recordings.
The mark [12] stands for this setting: mouse, 40 min post-administration.
[13] abbreviates: UP0030, 90–450 mg single ascending dose.
The mark [14] stands for this setting: TM0017, N = 4, single oral dose 360 mg.

Take `CCCC[C@H](Cc1c[nH]c2ccccc12)NC(=O)c1cnc(N2CC[N+](C)([O-])CC2)s1` [N-oxide]: in data set [1], the “concentration in CSF, times lower than the parent minzasolmin concentration” value was ~ 20 times.
In the case of `CCCCC(Cc1c[nH]c2ccccc12)NC(=O)c1cnc(N2CCN(C)CC2)s1` (stereo not drawn) [UCB2713], the “rate of metabolism compared with the other enantiomer” value in data set [2] is “higher rate of metabolism”.
As to `CCCC[C@@H](Cc1c[nH]c2ccccc12)NC(=O)c1cnc(N2CCN([11CH3])CC2)s1` [[^11C-N-CH3]UCB2713], the “standard uptake volume (SUV), whole brain” value in data set [3] was ~ 0.2. The “% Parent Plasma” value in data set [4] (40 min post IV administration) is 34.3% and 27.0% and 29.3% and 30.8%; in data set [4] (60 min post IV administration), 30.6% and 19.5% and 24.6%; in data set [4] (90 min post IV administration), 9.7% and 26.0% and 17.7%. For the same compound, the “% Parent Brain” value in data set [4] (40 min post IV administration) is 62.0% and 61.1% and 56.0% and 58.2%; in data set [4] (60 min post IV administration), 52.6% and 40.9% and 50.3%; in data set [4] (90 min post IV administration), 34.7% and 29.7% and 22.1%. Besides, the Kp at 40 min in data set [4] (male, C57 black 6, mouse, brain/plasma, intravenous, 1.54 µg, mouse, 40 min, read-out: ratio (SD) of parent in the brain versus parent in plasma) came to 0.77 ± 0.11. Moreover, the Kp at 60 min in data set [4] (male, C57 black 6, mouse, brain/plasma, intravenous, 1.54 µg, mouse, 60 min, read-out: ratio (SD) of parent in the brain versus parent in plasma) came out at 0.73 ± 0.06. Also, the Kp at 90 min in [4] (male, C57 black 6, mouse, brain/plasma, intravenous, 1.54 µg, mouse, 90 min, read-out: ratio (SD) of parent in the brain versus parent in plasma) is 0.79 ± 0.69. Further, the “share of total brain activity corresponding to the parent” value in data set [4] (setting [12]) is listed as “approximately 60%”; in data set [4] (mouse, 90 min), “approximately 30%”. In addition, the “share of total plasma activity corresponding to the parent” value in [4] (setting [12]) is “approximately 30%”; in data set [4] (mouse, 90 min), ~20%. In addition, in data set [4] (radio-HPLC column eluent front ~1.5-2 min), the “polar metabolites in mouse brain” value is “significant contribution of brain activity from polar metabolites”.
What is called fraction unbound is the share of the substance not bound to proteins or other matrix. A word on the AUC: it is the area under the concentration-time curve, a measure of exposure. Usually Cmax stands for the maximum level reached in the sampled fluid or tissue. In general, half-life refers to the time in which the quantity being followed falls by half. For orientation: Tmax means the time from dosing to the highest level. With `CCCC[C@H](Cc1c[nH]c2ccccc12)NC(=O)c1cnc(N2CCN(C)CC2)s1` [minzasolmin, N-[(1R)-1-(1H-indol-3-ylmethyl)pentyl]-2-(4-methylpiperazin-1-yl)thiazole-5-carboxamide], the permeability entry in [5] is recorded as “high permeability”. For the same compound, in data set [6] (setting [13]), the “AUC GeoMean (time zero to infinity)” value was 3225 to 17040 ng·h/mL, the “Cmax GeoMean” value is 374 to 1806 ng/mL and the “tmax Median” value was 1.5 to 2 h. Also, the “apparent terminal elimination half-life, GeoMean range” value in [6] (previous phase 1/1b studies) is 9.3 to 13.1 h. Further, the fraction unbound in data set [7] is ~0.025. Besides, in data set [8], the tolerability entry was “well-tolerated”. Moreover, the AUC in data set [9] (read-out: AUC GeoMean (time zero to infinity)) amounted to 13200 ng·h/mL. In data set [9] (read-out: Cmax GeoMean), the Cmax worked out at 1580 ng/mL. Besides, in [9] (read-out: apparent terminal elimination half-life (GeoMean) (converted)), the half-life was 686 min. Besides, in data set [9] (read-out: tmax Median), the Tmax was 2 h. In addition, the Kp in data set [10] (male, human, brain/plasma, intravenous, steady-state, from VT, read-out: Kp (total brain to total plasma concentration, partition coefficient)) was ~0.5. Also, the “maximum projected human total brain concentration” value in data set [10] (minzasolmin 360 mg/day dose, with plasma concentrations of UP0077) is listed as “up to 1273 ng/mL”. In data set [11] (setting [14]), the “Any TEAEs” value is given as 3 (75) n (%), the Deaths is recorded as 0 n (%), the “Discontinuations due to TEAEs” value is 0 n (%) and the “Drug-related TEAEs” value is listed as 0 n (%). In addition, in data set [11] (setting [14]), the “Serious TEAEs” value is reported as 0 n (%), the “Severe TEAEs” value was 0 n (%) and the “TEAEs of special interest” value was 0 n (%). In [11] (TM0017, healthy male participants), the “ECG parameters, vital signs, laboratory parameters” value was “No clinically relevant findings in ECG parameters or vital sign measurements; also recorded: no clinically relevant findings in laboratory parameters, vital signs, or ECG recordings”. Moreover, in data set [11] (TM0017 overall, three out of four participants), the “participants reporting TEAEs” value is reported as 75%.

Values taken from paper PMC10973027 (Molecular Imaging and Biology, 2023).
